Assay results: ChEMBL document CHEMBL1134947, “A mechanism-based probe for gp120-Hydrolyzing antibodies” (Bioorg Med Chem Lett, 2002)
Square brackets hold non-standard residues; d marks the D form. Peptide text beside a SMILES is read from it. * marks the point of attachment. X2 = N=C(N)c1ccc(C(N*)P(=O)(Oc2ccccc2)Oc2ccccc2)cc1; X1 = O=C(CCCCC1SCC2NC(=O)NC21)NCCNC(=O)CCS*; Mpa = O=C(O)CCS

Target: T1, Serine protease 1 (Bos taurus, UniProt P00760)
T1 sequence (P00760 whole entry): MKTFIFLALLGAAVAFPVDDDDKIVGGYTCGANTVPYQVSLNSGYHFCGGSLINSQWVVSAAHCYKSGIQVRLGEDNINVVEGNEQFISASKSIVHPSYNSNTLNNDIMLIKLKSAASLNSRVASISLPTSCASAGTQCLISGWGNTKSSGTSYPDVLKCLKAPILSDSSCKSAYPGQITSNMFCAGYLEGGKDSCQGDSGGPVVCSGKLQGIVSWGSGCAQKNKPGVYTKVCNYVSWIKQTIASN
Experiment: Concentration required for the inhibition of catalytic activity of bovine trypsin

SMILES | IC50 [µM]
N=C(N)c1ccc(C(NC(=O)CCSSCCC(=O)NCCNC(=O)CCCCC2SCC3NC(=O)NC32)P(=O)(Oc2ccccc2)Oc2ccccc2)cc1 (configuration not stated) | 31
CC[C@H](C)[C@H](NC(=O)[C@H](CCC(N)=O)NC(=O)[C@H](CCCCN)NC(=O)CCSSCCC(=O)NCCNC(=O)CCCCC1SCC2NC(=O)NC21)C(=O)N[C@H](C(=O)N[C@@H](CC(N)=O)C(=O)N[C@@H](CCSC)C(=O)N[C@@H](Cc1c[nH]c2ccccc12)C(=O)N[C@@H](CCC(N)=O)C(=O)N[C@@H](CCC(=O)O)C(=O)N[C@H](C(=O)NCC(=O)NC(c1ccc(C(=N)N)cc1)P(=O)(Oc1ccccc1)Oc1ccccc1)C(C)C)[C@@H](C)CC (some centres not stated) ([Mpa](X1)KQIINMWQEVG-X2) | 30
